Where two headings read alike, the source gives them in different places.
Assays:
[1] = tested on: lymphocytes; experiment: Lymphocyte reduction in C57BL/6 mice; type: in vivo; settings: Mus musculus, ip
Experimental: An experiment was performed to evaluate the effect of Bcl-2 selective/Bcl-xL sparing compounds on immune cells and platelets, as evaluated in C57Bl/6 mice. Mice were treated four days with compounds (doses of 30 mg/kg, administered by intraperitoneal injection every day) and cell numbers were measured with a Cell Dyn hematology analyzer 24 hours after the first and last doses. Exposure of the compound (area under the curve) was calculated by using time points of 1, 6, 10 and 24 hours after the last dose.

[2] = tested on: RS4;11 cells; experiment: RS4;11 cell viability assay (CellTiter Glo); type: cell-based; settings: 10% human serum, 48 hours
Excerpt: The acute lymphoblastic leukemia (ALL) cell line RS4;11 was used as the primary human cell line to assess the cellular activity of Bcl-2 selective agents in vitro and their efficacy in vivo. Previous studies have shown by BH3 profiling, a mitochondrial assay that classifies blocks in the intrinsic apoptotic pathway, that RS4;11 cells were highly dependant on BCL-2 for survival and sensitive to the Bcl-2 family member inhibitor ABT-737 (Blood, 2008, Vol. 111, 2300-2309).
RS4;11 cells were cultured in RPMI-1640 supplemented with 2 mM L-glutamine, 10% FBS, 1 mM sodium pyruvate, 2 mM HEPES, 1% penicillin/streptomycin (Invitrogen), 4.5 g/L glucose and maintained at 37 C containing 5% CO2. To test for the cellular activity of compounds in vitro, cells were treated at 50,000 cells per well in 96-well microtiter plates in the presence of 10% human serum for 48 hours in a humidified chamber with 5% CO2. Cell cytotoxicity EC50 values were assessed using CellTiter Glo (Promega) according to the manufacturer's recommendations. The EC50 values were determined as a percentage of viable cells following treatment compared to the untreated control cells.

[3] = molecular target: GST-Bcl-2 (Homo sapiens, UniProt P10415); experiment: TR-FRET Bcl-2 binding assay (F-Bak peptide probe); settings: GST-Bcl-2 1 nM, F-Bak peptide probe 100 nM, Tb-anti-GST 1 nM; Wang's equation; '<' = below limit of detection
Chain of GST-Bcl-2 (P10415 whole entry): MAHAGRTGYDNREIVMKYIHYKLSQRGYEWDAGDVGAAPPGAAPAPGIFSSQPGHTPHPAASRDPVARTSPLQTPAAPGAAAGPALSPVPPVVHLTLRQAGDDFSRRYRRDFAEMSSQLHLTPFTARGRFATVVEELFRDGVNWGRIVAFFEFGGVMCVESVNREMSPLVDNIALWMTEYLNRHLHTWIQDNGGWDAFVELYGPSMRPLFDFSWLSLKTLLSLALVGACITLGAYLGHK
Experimental: Determination of the utility of compounds of this invention as binders to and inhibitors of anti-apoptotic Bcl-2 proteins was performed using the Time Resolved-Fluorescence Resonance Energy Transfer (TR-FRET) Assay. Tb-anti-GST antibody was purchased from Invitrogen (Catalog No. PV4216).
Representative compounds were serially diluted in dimethyl sulfoxide (DMSO) starting at 50 μM (2× starting concentration; 10% DMSO) and 10 μL were transferred into a 384-well plate. The samples are then mixed on a shaker for 1 minute and incubated for an additional 3 hours at room temperature. For each assay, the probe/antibody and protein/probe/antibody were included on each assay plate as negative and positive controls, respectively. Fluorescence was measured on the Envision (Perkin Elmer) using a 340/35 nm excitation filter and 520/525 (F-Bak peptide) and 495/510 nm (Tb-labeled […] antibody) emission filters. Dissociation constants (Ki) are shown in TABLE 2 below and were determined using Wang's equation (Wang Z.-X., An Exact Mathematical Expression For Describing Competitive Binding Of Two Different Ligands To A Protein Molecule. FEBS Lett. 1995, 360:111-4).
The samples were then mixed on a shaker for 1 minute and incubated for an additional 3 hours at room temperature. For each assay, the probe/antibody and protein/probe/antibody were included on each assay plate as negative and positive controls, respectively. Fluorescence was measured on the Envision (Perkin Elmer) using a 340/35 nm excitation filter and 520/525 (F-Bak peptide) and 495/510 nm (Tb-labeled anti-Histidine antibody) emission filters.
Inhibition constants (Ki) for compounds were determined using Wang's equation (Wang Zx. An Exact Mathematical Expression For Describing Competitive Binding Of Two Different Ligands To A Protein Molecule. FEBS Lett. 1995, 360:111-4).
The inhibition constant (Ki) is the dissociation constant of an enzyme-inhibitor complex or a protein/small molecule complex, wherein the small molecule is inhibiting binding of one protein to another protein or peptide. So a large Ki value indicates a low binding affinity and a small Ki value indicates a high binding affinity. […] The compounds are therefore expected to have utility in treatment of diseases during which anti-apoptotic Bcl-2 protein is expressed. Biological Data

[4] = 30 mg/kg intraperitoneal every day for four days, 24 hours after the last dose, read-out: Lymphocyte reduction % inh. day 4
[5] = 30 mg/kg intraperitoneal every day, 24 hours after the first dose, read-out: Lymphocyte reduction % inh. day 1

CC1(C)CCC(CN2CCN(c3ccc(C(=O)NS(=O)(=O)c4ccc(NCC5CCC6(CC5)OCCO6)c([N+](=O)[O-])c4)c(Oc4cnc5[nH]ccc5c4)c3)CC2)=C(c2ccc(Cl)cc2)C1 [Example 7, 4-(4-{[2-(4-chlorophenyl)-4,4-dimethylcyclohex-1-en-1-yl]methyl}piperazin-1-yl)-N-({4-[(1,4-dioxaspiro[4.5]dec-8-ylmethyl)amino]-3-nitrophenyl}sulfonyl)-2-(1H-pyrrolo[2,3-b]pyridin-5-yloxy)benzamide]
inhibition at 30 mg/kg [1, 4]: 55% | inhibition at 30 mg/kg [1, 5]: 64% | EC50 [2]: 6.8 nM

C[C@H]1CO[C@@H](CNc2ccc(S(=O)(=O)NC(=O)c3ccc(N4CCN(CC5=C(c6ccc(Cl)cc6)CC(C)(C)CC5)CC4)cc3Oc3cnc4[nH]ccc4c3)cc2[N+](=O)[O-])CO1 [Example 45, 4-(4-{[2-(4-chlorophenyl)-4,4-dimethylcyclohex-1-en-1-yl]methyl}piperazin-1-yl)-N-{[4-({[(2S,5S)-5-methyl-1,4-dioxan-2-yl]methyl}amino)-3-nitrophenyl]sulfonyl}-2-(1H-pyrrolo[2,3-b]pyridin-5-yloxy)benzamide]
Ki [3]: < 0.1 nM | EC50 [2]: 19 nM

CC1(C)CCC(CN2CCN(c3ccc(C(=O)NS(=O)(=O)c4ccc(NCC5CCOCC5)c([N+](=O)[O-])c4)c(Oc4cnc5[nH]ccc5c4)c3)CC2)=C(c2ccc(C3CC3)cc2)C1 [Example 52, 4-(4-{[2-(4-cyclopropylphenyl)-4,4-dimethylcyclohex-1-en-1-yl]methyl}piperazin-1-yl)-N-({3-nitro-4-[(tetrahydro-2H-pyran-4-ylmethyl)amino]phenyl}sulfonyl)-2-(1H-pyrrolo[2,3-b]pyridin-5-yloxy)benzamide]
inhibition at 30 mg/kg [1, 4]: 51% | inhibition at 30 mg/kg [1, 5]: 54% | EC50 [2]: 16 nM

C[C@H](Nc1ccc(S(=O)(=O)NC(=O)c2ccc(N3CCN(CC4=C(c5ccc(Cl)cc5)CC(C)(C)CC4)CC3)cc2Oc2cnc3[nH]ccc3c2)cc1[N+](=O)[O-])C1CCOCC1 [Example 2, 4-(4-{[2-(4-chlorophenyl)-4,4-dimethylcyclohex-1-en-1-yl]methyl}piperazin-1-yl)-N-[(3-nitro-4-{[(1S)-1-(tetrahydro-2H-pyran-4-yl)ethyl]amino}phenyl)sulfonyl]-2-(1H-pyrrolo[2,3-b]pyridin-5-yloxy)benzamide]
inhibition at 30 mg/kg [1, 4]: < 15% | inhibition at 30 mg/kg [1, 5]: < 15% | EC50 [2]: 160 nM

CC1(C)CCC(CN2CCN(c3ccc(C(=O)NS(=O)(=O)c4ccc(NCC5(F)COCCOC5)c([N+](=O)[O-])c4)c(Oc4cnc5[nH]ccc5c4)c3)CC2)=C(c2ccc(Cl)cc2)C1 [Example 39, 4-(4-{[2-(4-chlorophenyl)-4,4-dimethylcyclohex-1-en-1-yl]methyl}piperazin-1-yl)-N-[(4-{[(6-fluoro-1,4-dioxepan-6-yl)methyl]amino}-3-nitrophenyl)sulfonyl]-2-(1H-pyrrolo[2,3-b]pyridin-5-yloxy)benzamide]
EC50 [2]: 40 nM

CC1(C)CCC(CN2CCN(c3ccc(C(=O)NS(=O)(=O)c4ccc(NCC5CCOCC5)c([N+](=O)[O-])c4)c(Oc4cnc5[nH]ccc5c4)c3)CC2)=C(c2ccc(Cl)c(F)c2)C1 [Example 49, 4-(4-{[2-(4-chloro-3-fluorophenyl)-4,4-dimethylcyclohex-1-en-1-yl]methyl}piperazin-1-yl)-N-({3-nitro-4-[(tetrahydro-2H-pyran-4-ylmethyl)amino]phenyl}sulfonyl)-2-(1H-pyrrolo[2,3-b]pyridin-5-yloxy)benzamide]
EC50 [2]: 46 nM

CCC1(CNc2ccc(S(=O)(=O)NC(=O)c3ccc(N4CCN(CC5=C(c6ccc(Cl)cc6)CC(C)(C)CC5)CC4)cc3Oc3cnc4[nH]ccc4c3)cc2[N+](=O)[O-])CCOCC1 [Example 50, 4-(4-{[2-(4-chlorophenyl)-4,4-dimethylcyclohex-1-en-1-yl]methyl}piperazin-1-yl)-N-[(4-{[(4-ethyltetrahydro-2H-pyran-4-yl)methyl]amino}-3-nitrophenyl)sulfonyl]-2-(1H-pyrrolo[2,3-b]pyridin-5-yloxy)benzamide]
EC50 [2]: 52 nM

CC1(C)CCC(CN2CCN(c3ccc(C(=O)NS(=O)(=O)c4ccc(NCC5CCOCC5)c([N+](=O)[O-])c4)c(Oc4cnc5[nH]ccc5c4)c3)CC2)=C(c2ccc(Cl)cc2F)C1 [Example 48, 4-(4-{[2-(4-chloro-2-fluorophenyl)-4,4-dimethylcyclohex-1-en-1-yl]methyl}piperazin-1-yl)-N-({3-nitro-4-[(tetrahydro-2H-pyran-4-ylmethyl)amino]phenyl}sulfonyl)-2-(1H-pyrrolo[2,3-b]pyridin-5-yloxy)benzamide]
inhibition at 30 mg/kg [1, 4]: 78% | inhibition at 30 mg/kg [1, 5]: 76% | EC50 [2]: 3.3 nM

CC1(C)CCC(CN2CCN(c3ccc(C(=O)NS(=O)(=O)c4ccc(NCC5CCOCC5)c([N+](=O)[O-])c4)c(Oc4cnc5[nH]ccc5c4)c3)CC2)=C(c2ccc(C(F)F)cc2)C1 [Example 54, 4-[4-({2-[4-(difluoromethyl)phenyl]-4,4-dimethylcyclohex-1-en-1-yl}methyl)piperazin-1-yl]-N-({3-nitro-4-[(tetrahydro-2H-pyran-4-ylmethyl)amino]phenyl}sulfonyl)-2-(1H-pyrrolo[2,3-b]pyridin-5-yloxy)benzamide]
EC50 [2]: 9.9 nM

CC1(C)CCC(CN2CCN(c3ccc(C(=O)NS(=O)(=O)c4ccc(NC[C@@H]5CCCOCC5)c([N+](=O)[O-])c4)c(Oc4cnc5[nH]ccc5c4)c3)CC2)=C(c2ccc(Cl)cc2)C1 [Example 19, 4-(4-{[2-(4-chlorophenyl)-4,4-dimethylcyclohex-1-en-1-yl]methyl}piperazin-1-yl)-N-[(3-nitro-4-{[(4R)-oxepan-4-ylmethyl]amino}phenyl)sulfonyl]-2-(1H-pyrrolo[2,3-b]pyridin-5-yloxy)benzamide]
inhibition at 30 mg/kg [1, 4]: 45% | inhibition at 30 mg/kg [1, 5]: 49% | EC50 [2]: 14 nM

COC(=O)C1(CNc2ccc(S(=O)(=O)NC(=O)c3ccc(N4CCN(CC5=C(c6ccc(Cl)cc6)CC(C)(C)CC5)CC4)cc3Oc3cnc4[nH]ccc4c3)cc2[N+](=O)[O-])CCOCC1 [Example 17, methyl 4-{[(4-{[4-(4-{[2-(4-chlorophenyl)-4,4-dimethylcyclohex-1-en-1-yl]methyl}piperazin-1-yl)-2-(1H-pyrrolo[2,3-b]pyridin-5-yloxy)benzoyl]sulfamoyl}-2-nitrophenyl)amino]methyl}tetrahydro-2H-pyran-4-carboxylate]
EC50 [2]: 85 nM

CC1(C)CCC(CN2CCN(c3ccc(C(=O)NS(=O)(=O)c4ccc(NC56CC7CC(CC(O)(C7)C5)C6)c([N+](=O)[O-])c4)c(Oc4cnc5[nH]ccc5c4)c3)CC2)=C(c2ccc(Cl)cc2)C1 [Example 13, 4-(4-{[2-(4-chlorophenyl)-4,4-dimethylcyclohex-1-en-1-yl]methyl}piperazin-1-yl)-N-({4-[(3-hydroxytricyclo[3.3.1.1^3,7]dec-1-yl)amino]-3-nitrophenyl}sulfonyl)-2-(1H-pyrrolo[2,3-b]pyridin-5-yloxy)benzamide]
EC50 [2]: 130 nM

— patent publication US10081628B2, “Apoptosis-inducing agents for the treatment of cancer and immune and autoimmune diseases” (AbbVie Inc., priority 2013, dated 2018)
